Test systems include Staphylococcus aureus; Escherichia coli W160-37; Escherichia coli MH1; Saccharomyces cerevisiae; Escherichia coli ML-35p; Listeria ivanovii; Escherichia coli.
What all share (assay): ≥ marks a high value that may be exact or a test limit, other limits are often not marked, values filed in µg/mL are converted to µM
The subject of assay [1] is Escherichia coli ATCC 25922.
The subject of assay [2] is Candida albicans ATCC 37092.
Assay [3] relates to Staphylococcus aureus ATCC 29213.
For assay [4], the system named is Bacillus subtilis VKM B-501.
For assay [5], the system named is Pseudomonas aeruginosa PAO1.
The subject of assay [6] is Escherichia coli DH5alpha.
Assay [7] relates to Arthrobacter globiformis VKM Ac-1112.
Assay [8] has as its system Saccharomyces cerevisiae Y190.
The subject of assay [9] is Staphylococcus aureus ATCC 25923.
The subject of assay [10] is Enterococcus faecalis ATCC 29212.
Assay [11] deals with Klebsiella pneumoniae ATCC 13883.
Assay [12] relates to Acinetobacter baumannii ATCC 19606.
Assay [13] concerns Salmonella enterica subsp. enterica serovar Enteritidis.
For assay [14], the system named is Staphylococcus aureus ST1065.
Assay [15] has as its system Candida albicans ATCC 90028.
Assay [16] has as its system Streptococcus pyogenes ATCC 19615.
Assay [17] concerns Pseudomonas aeruginosa ATCC 27853.
Assay [18] has as its system Candida parapsilosis ATCC 22019.
Assay [19] relates to Candida albicans ATCC 64550.

Values after ≈ are worked out from the molar mass of the structure shown. Values joined by “and” are separate entries in the source; they are usually repeats but may differ in a detail not shown here. Equal values may be shown once.

`CC[C@H](C)[C@H](NC(=O)[C@@H]1CCCN1C(=O)[C@H](CCCN=C(N)N)NC(=O)[C@@H]1CCCN1C(=O)CNC(=O)[C@@H]1CCCN1C(=O)[C@H](CCCN=C(N)N)NC(=O)[C@@H]1CCCN1C(=O)[C@H](Cc1ccccc1)NC(=O)[C@@H]1CCCN1C(=O)[C@H](CC(C)C)NC(=O)[C@@H]1CCCN1C(=O)[C@H](CCCN=C(N)N)NC(=O)[C@@H]1CCCN1C(=O)[C@@H](NC(=O)[C@@H]1CCCN1C(=O)[C@H](CCCN=C(N)N)NC(=O)[C@@H]1CCCN1C(=O)CNC(=O)[C@@H]1CCCN1C(=O)[C@H](CCCN=C(N)N)NC(=O)[C@@H]1CCCN1C(=O)[C@H](Cc1ccccc1)NC(=O)[C@@H]1CCCN1C(=O)[C@H](CC(C)C)NC(=O)[C@@H]1CCCN1)[C@@H](C)CC)C(=O)N1CCC[C@H]1C(=O)N[C@@H](CCCN=C(N)N)C(=O)N1CCC[C@H]1C(=O)O` [PLPFPRPGPRPIPRPLPFPRPGPRPIPRP]: the MIC in [1] amounted to 5.84 µM (≈ 19.1 µg/mL); in assay [2], 0.5 µM (≈ 1.64 µg/mL); in [3], 30.5 µM (≈ 99.8 µg/mL).
As to `CC[C@H](C)[C@H](NC(=O)[C@H](Cc1c[nH]c2ccccc12)NC(=O)[C@H](CCCCN)NC(=O)[C@H](CCCCN)NC(=O)[C@H](CC(C)C)NC(=O)[C@H](Cc1ccccc1)NC(=O)[C@H](CCCCN)NC(=O)[C@H](CCCCN)NC(=O)[C@H](CC(C)C)NC(=O)[C@H](CC(C)C)NC(=O)[C@H](CCCCN)NC(=O)[C@@H]1CCCN1)C(=O)NCC(=O)O` [PKLLKKFLKKWIG], the minimum inhibitory concentration (MIC) was 13 µM (≈ 20.8 µg/mL) against Staphylococcus aureus and 24 µM (≈ 38.4 µg/mL) in the assay on Escherichia coli W160-37.
Regarding `CSCC[C@H](NC(=O)[C@H](CO)NC(=O)[C@H](C)NC(=O)[C@H](Cc1c[nH]c2ccccc12)NC(=O)[C@@H](N)CO)C(=O)N[C@@H](C)C(=O)N[C@@H](CCCCN)C(=O)N[C@@H](CCCCN)C(=O)N[C@@H](CC(C)C)C(=O)N[C@@H](CCCCN)C(=O)N[C@@H](CCC(=O)O)C(=O)N[C@@H](Cc1ccc(O)cc1)C(=O)N[C@@H](CCSC)C(=O)N[C@@H](CCC(=O)O)C(=O)N[C@@H](CCCCN)C(=O)N[C@@H](CC(C)C)C(=O)N[C@@H](CCCCN)C(=O)N[C@@H](CCC(N)=O)C(=O)N[C@@H](CCCN=C(N)N)C(=O)N[C@@H](C)C(N)=O` [SWASMAKKLKEYMEKLKQRA], the MIC in [4] is 2.9 µM (≈ 7.04 µg/mL); in the assay on Escherichia coli MH1, 28 µM (≈ 67.9 µg/mL); in assay [5], above 45 µM; in assay [6] it was 23 µM (≈ 55.8 µg/mL); in assay [7] it was 0.7 µM (≈ 1.7 µg/mL); in assay [8], 23 µM (≈ 55.8 µg/mL).
For `CC[C@H](C)[C@H](N)C(=O)N[C@@H](CC(C)C)C(=O)N1CCC[C@H]1C(=O)N[C@@H](CC(C)C)C(=O)N[C@@H](CCCCN)C(=O)N[C@@H](CC(C)C)C(=O)N1CCC[C@H]1C(=O)N[C@@H](CC(C)C)C(=O)N[C@@H](CC(C)C)C(=O)N1CCC[C@H]1C(=O)N[C@@H](Cc1c[nH]c2ccccc12)C(=O)N[C@@H](CCCN=C(N)N)C(=O)N[C@@H](CCCN=C(N)N)C(N)=O` [ILPLKLPLLPWRR], the values for the minimal inhibitory concentration (MIC) in the assay on Staphylococcus aureus and against Escherichia coli W160-37 were 3.1 µM (≈ 5 µg/mL) and 12.4 µM (≈ 20 µg/mL), respectively.
`CC[C@H](C)[C@H](NC(=O)CNC(=O)[C@@H](N)CCCCN)C(=O)N[C@H](C(=O)NCC(=O)N[C@@H](CCSC)C(=O)N[C@@H](CC(C)C)C(=O)NCC(=O)N[C@@H](CCCCN)C(=O)N[C@@H](CC(C)C)C(=O)N[C@@H](Cc1ccccc1)C(N)=O)C(C)C` [KGIVGMLGKLF]: the MIC is 40 µM (≈ 46.5 µg/mL) in assay [9]; above 200 µM in assay [10]; at least 100 µM in [11]; 50 µM (≈ 58.1 µg/mL) in [12]; at least 100 µM in assay [13]; 12 µM (≈ 13.9 µg/mL) in the assay on Saccharomyces cerevisiae. Moreover, the minimal inhibitory concentration (MIC) in assay [14] was at least 40 µM; in assay [15] it was 12 µM (≈ 13.9 µg/mL); in the assay on Escherichia coli ML-35p it was 25 µM (≈ 29 µg/mL); in [16], at least 50 µM; in [1], 30 µM (≈ 34.8 µg/mL); in assay [17], 25 µM (≈ 29 µg/mL). Also, the MIC with Listeria ivanovii is 12 µM (≈ 13.9 µg/mL); in assay [18] it was at least 50 µM.
Consider `CC[C@H](C)[C@H](NC(=O)CNC(=O)[C@H](CCCCN)NC(=O)[C@H](C)NC(=O)[C@@H](N)Cc1ccccc1)C(=O)N[C@@H](C)C(=O)NCC(=O)N[C@@H](CCSC)C(=O)N[C@@H](C)C(=O)NCC(=O)N[C@@H](CCCCN)C(=O)N[C@@H](CC(C)C)C(=O)N[C@@H](Cc1ccccc1)C(N)=O` [FAKGIAGMAGKLF], for which the MIC was above 200 µM in [9]; above 200 µM in [10]; at least 200 µM in assay [11]; above 200 µM in assay [12]; at least 200 µM in [13]; at least 200 µM against Saccharomyces cerevisiae. Also, the MIC in assay [14] is at least 200 µM; in assay [15] it was at least 200 µM; in the assay on Escherichia coli ML-35p, at least 200 µM; in assay [16], at least 100 µM; in assay [1], above 200 µM; in assay [17] it was above 200 µM. The MIC (against Listeria ivanovii; in assay [18]) was at least 200 µM each time.
Turning to `CC[C@H](C)[C@H](NC(=O)[C@H](Cc1ccc(O)cc1)NC(=O)[C@H](CCC(N)=O)NC(=O)[C@H](CCCCN)NC(=O)[C@H](CC(C)C)NC(=O)[C@H](CCCCN)NC(=O)[C@H](CCC(=O)O)NC(=O)CNC(=O)[C@H](CCSC)NC(=O)[C@H](CO)NC(=O)[C@H](CCCCN)NC(=O)[C@@H](NC(=O)[C@H](CCCCN)NC(=O)[C@H](CC(=O)O)NC(=O)[C@H](CCCCN)NC(=O)[C@H](CC(C)C)NC(=O)[C@@H](N)CO)C(C)C)C(=O)N[C@@H](CCC(N)=O)C(=O)N[C@H](C(=O)N[C@@H](Cc1c[nH]c2ccccc12)C(=O)N[C@@H](CCCCN)C(=O)N[C@@H](C)C(=O)N[C@@H](CCCCN)C(=O)N[C@@H](Cc1ccccc1)C(N)=O)[C@@H](C)O` [SLKDKVKSMGEKLKQYIQTWKAKF], the MIC is 1.1 µM (≈ 3.17 µg/mL) in assay [4]; 4.4 µM (≈ 12.7 µg/mL) with Escherichia coli MH1; above 35 µM in assay [5]; 4.4 µM (≈ 12.7 µg/mL) in assay [6]; 0.3 µM (≈ 0.865 µg/mL) in [7]; at least 35 µM in [8].
As to `CC[C@H](C)[C@H](NC(=O)[C@H](CCCN=C(N)N)NC(=O)[C@@H](N)CCCN=C(N)N)C(=O)N[C@@H](CCCN=C(N)N)C(=O)N1CCC[C@H]1C(=O)N[C@@H](CCCN=C(N)N)C(=O)N1CCC[C@H]1C(=O)N1CCC[C@H]1C(=O)N[C@@H](CCCN=C(N)N)C(=O)N[C@@H](CC(C)C)C(=O)N1CCC[C@H]1C(=O)N[C@@H](CCCN=C(N)N)C(=O)N1CCC[C@H]1C(=O)N[C@@H](CCCN=C(N)N)C(=O)N1CCC[C@H]1C(=O)N[C@@H](CCCN=C(N)N)C(=O)N1CCC[C@H]1C(=O)O` [RRIRPRPPRLPRPRPRP], the figures for the MIC in [1], in assay [2] and in assay [3] were 0.89 µM (≈ 1.93 µg/mL), 1.05 µM (≈ 2.28 µg/mL) and 0.81 µM (≈ 1.76 µg/mL), respectively.
As for `NCCCC[C@H](NC(=O)[C@H](CCCCN)NC(=O)[C@H](CCCN=C(N)N)NC(=O)[C@H](CCCN=C(N)N)NC(=O)[C@H](Cc1c[nH]c2ccccc12)NC(=O)[C@H](Cc1c[nH]c2ccccc12)NC(=O)[C@H](CCCN=C(N)N)NC(=O)[C@H](CCCCN)NC(=O)[C@H](Cc1c[nH]c2ccccc12)NC(=O)[C@@H](N)CCCN=C(N)N)C(N)=O` [RWKRWWRRKK], the MIC in assay [9] is 3 µM and 6 µM; with Escherichia coli, 3 µM (≈ 4.75 µg/mL); in [19] it was at least 100 µM.

These data come from DBAASP.
